Laboratory results taken from patent US20260200905A1, “MICROBIOCIDAL TETRAHYDROISOQUINOLINE DERIVATIVES” (SYNGENTA CROP PROTECTION AG, priority 2022, published 2026).

Tests used:
[1] = tested on: Puccinia recondita f. sp. tritici; assay: Puccinia recondita f. sp. tritici / wheat / leaf disc curative (brown rust); assay type: in vivo; conditions: 200 ppm, applied 1 day after inoculation
Procedure: Example B7: Puccinia recondita f. Sp. Tritici/Wheat/Leaf Disc Curative (Brown Rust) Wheat leaf segments cv. Kanzler are placed on agar in multiwell plates (24-well format). The leaf segments are inoculated with a spore suspension of the fungus. Plates are stored in darkness at 19° C. and 75% rh. The formulated test compound diluted in water is applied 1 day after inoculation. The leaf segments are incubated at 19° C. and 75% rh under a light regime of 12 h light/12 h darkness in a climate cabinet and the activity of a compound is assessed as percent disease control compared to untreated when an appropriate level of disease damage appears in untreated check leaf segments (6 to 8 days after application).

[2] = tested on: Mycosphaerella graminicola (Septoria tritici); assay: Mycosphaerella graminicola (Septoria tritici) / liquid culture (Septoria blotch); assay type: cell-based; conditions: Zymoseptoria tritici, growth inhibition photometrically 4 to 5 days after application, read-out: control of Mycosphaerella graminicola
Procedure: (§1) Example B12: Mycosphaerella graminicola (Septoria tritici)/Liquid Culture (Septoria Blotch) Conidia of the fungus from cryogenic storage are directly mixed into nutrient broth (PDB potato dextrose broth). After placing a (DMSO) solution of test compound into a microtiter plate (96-well format), the nutrient broth containing the fungal spores is added. The test plates are incubated at 24° C. and the inhibition of growth is determined photometrically 4 to 5 days after application.

[3] = tested on: Monographella nivalis (Microdochium nivale); assay: Monographella nivalis (Microdochium nivale) / liquid culture (foot rot cereals); assay type: cell-based; conditions: growth inhibition photometrically 4 to 5 days after application, read-out: control of Monographella nivalis
Procedure: as §1, with “B5: Monographella nivalis (Microdochium nivale)/Liquid” for “B12: Mycosphaerella graminicola (Septoria tritici)/Liquid”, “(Foot Rot Cereals)” for “(Septoria Blotch)”

[4] = tested on: Mycosphaerella arachidis (Cercospora arachidicola); assay: Mycosphaerella arachidis (Cercospora arachidicola) / liquid culture (early leaf spot); assay type: cell-based; conditions: growth inhibition photometrically 4 to 5 days after application, read-out: control of Mycosphaerella arachidis
Procedure: as §1, with “B6:” for “B12:”, “arachidis (Cercospora arachidicola)/Liquid” for “graminicola (Septoria tritici)/Liquid”, “(Early Leaf Spot)” for “(Septoria Blotch)”

[5] = tested on: Pyrenophora teres; assay: Pyrenophora teres / barley / leaf disc preventative (net blotch); assay type: in vivo; conditions: 200 ppm, compared to untreated control
Procedure: Example B9: Pyrenophora teres/Barley/Leaf Disc Preventative (Net Blotch) Barley leaf segments cv. Hasso are placed on agar in a multiwell plate (24-well format) and sprayed with the formulated test compound diluted in water. The leaf segments are inoculated with a spore suspension of the fungus 2 days after application. The inoculated leaf segments are incubated at 20° C. and 65% rh under a light regime of 12 h light/12 h darkness in a climate cabinet and the activity of a compound is assessed as disease control compared to untreated when an appropriate level of disease damage appears in untreated check leaf segments (5 to 7 days after application).

[6] = tested on: Pythium ultimum; assay: Pythium ultimum / liquid culture (seedling damping off); assay type: cell-based; conditions: 20 ppm, growth inhibition photometrically 2 to 3 days after application
Procedure: Example B10: Pythium ultimum/Liquid Culture (Seedling Damping Off) Mycelia fragments and oospores of a newly grown liquid culture of the fungus are directly mixed into nutrient broth (PDB potato dextrose broth). After placing a (DMSO) solution of test compound into a microtiter plate (96-well format), the nutrient broth containing the fungal mycelia/spore mixture is added. The test plates are incubated at 24° C. and the inhibition of growth is determined photometrically 2 to 3 days after application.

[7] = tested on: Thanatephorus cucumeris (Rhizoctonia solani); assay: Thanatephorus cucumeris (Rhizoctonia solani) / liquid culture (foot rot, damping-off); assay type: cell-based; conditions: 20 ppm, growth inhibition photometrically 3 to 4 days after application
Procedure: Example B11: Thanatephorus cucumeris (Rhizoctonia solani)/Liquid Culture (Foot Rot, Damping-Off) Mycelia fragments of a newly grown liquid culture of the fungus are directly mixed into nutrient broth (PDB potato dextrose broth). After placing a (DMSO) solution of the test compounds into a microtiter plate (96-well format), the nutrient broth containing the fungal material is added. The test plates are incubated at 24° C. and the inhibition of growth is determined photometrically 3 to 4 days after application.

[8] = tested on: Phaeosphaeria nodorum (Septoria nodorum); assay: Phaeosphaeria nodorum (Septoria nodorum) / wheat / leaf disc preventative (glume blotch); assay type: in vivo; conditions: 200 ppm, compared to untreated control
Procedure: Example B4: Phaeosphaeria Nodorum (Septoria nodorum)/Wheat/Leaf Disc Preventative (Glume Blotch) Wheat leaf segments cv. Kanzler are placed on agar in a multiwell plate (24-well format) and sprayed with the formulated test compound diluted in water. The leaf disks are inoculated with a spore suspension of the fungus 2 days after application. The inoculated test leaf disks are incubated at 20° C. and 75% rh under a light regime of 12 h light/12 h darkness in a climate cabinet and the activity of a compound is assessed as percent disease control compared to untreated when an appropriate level of disease damage appears in untreated check leaf disks (5 to 7 days after application).

SMILES	control of Puccinia recondita f sp. tritici [1]	inhibition of growth at 20 ppm [2]	inhibition of growth at 20 ppm [3]	inhibition of growth at 20 ppm [4]	control of Pyrenophora teres [5]	control of Pythium ultimum [6]	control of Thanatephorus cucumeris [7]	control of Phaeosphaeria nodorum [8]
Cc1c(C2CN(C(=O)c3cc(-c4ccc(F)cc4F)no3)Cc3ccccc32)cc(C#N)n1C (centres unmarked) [Compound P-19, 4-[2-[3-(2,4-difluorophenyl)isoxazole-5-carbonyl]-3,4-dihydro-1H-isoquinolin-4-yl]-1,5-dimethyl-pyrrole-2-carbonitrile]	at least 80%	≥ 80%						
O=C(c1cc(-c2ccc(F)cc2F)on1)N1Cc2c(F)cccc2C(c2cccnc2)C1 (centres unmarked) [Compound P-1, [5-(2,4-difluorophenyl)isoxazol-3-yl]-[8-fluoro-4-(3-pyridyl)-3,4-dihydro-1H-isoquinolin-2-yl]methanone]		≥ 80%	≥ 80%	≥ 80%	at least 80%			
Cc1ccc(C2CN(C(=O)c3cc(-c4ccc(F)cc4F)on3)Cc3ccccc32)cn1 (centres unmarked) [Compound P-3, [5-(2,4-difluorophenyl)isoxazol-3-yl]-[4-(6-methyl-3-pyridyl)-3,4-dihydro-1H-isoquinolin-2-yl]methanone]		≥ 80%	≥ 80%	≥ 80%				
O=C(c1cc(-c2ccc(F)cc2F)on1)N1Cc2cccc(F)c2C(c2cccnc2)C1 (centres unmarked) [Compound P-9, [5-(2,4-difluorophenyl)isoxazol-3-yl]-[5-fluoro-4-(3-pyridyl)-3,4-dihydro-1H-isoquinolin-2-yl]methanone]		≥ 80%	≥ 80%	≥ 80%				
O=C(c1cc(-c2ccc(F)cc2F)on1)N1Cc2ccccc2C(c2ccncc2)C1 (centres unmarked) [Compound P-2, [5-(2,4-difluorophenyl)isoxazol-3-yl]-4-[4-(4-pyridyl)-3,4-dihydro-1H-isoquinolin-2-yl]methanone]		≥ 80%	≥ 80%			at least 80%	at least 80%	
O=C(c1cc(-c2ccccc2)on1)N1Cc2ccccc2C(c2cccnc2)C1 (centres unmarked) [Compound P-6, (5-phenylisoxazol-3-yl)-[4-(3-pyridyl)-3,4-dihydro-1H-isoquinolin-2-yl]methanone]		≥ 80%	≥ 80%	≥ 80%				
Cn1nc(C2CN(C(=O)c3cc(-c4ccc(F)cc4F)on3)Cc3ccccc32)cc1Cl (centres unmarked) [Compound P-7, [4-(5-chloro-1-methyl-pyrazol-3-yl)-3,4-dihydro-1H-isoquinolin-2-yl]-[5-(2,4-difluorophenyl)isoxazol-3-yl]methanone]		≥ 80%	≥ 80%	≥ 80%				at least 80%
O=C(c1cc(-c2ccc(F)cc2F)on1)N1Cc2ccccc2C(c2cccnc2)C1 (centres unmarked) [Compound P-5, [5-(2,4-difluorophenyl)isoxazol-3-yl]-[4-(3-pyridyl)-3,4-dihydro-1H-isoquinolin-2-yl]methanone]		≥ 80%	≥ 80%	≥ 80%				
